Tests used:
Assay in all cases: relative viability (nuclei count vs DMSO), 5 days (fraction); higher = more cells survive
GW-2580 + Tozasertib = compound: COC1=CC=C(C=C1)COC2=C(C=C(C=C2)CC3=CN=C(N=C3N)N)OC [GW-2580] + Cc1cc(Nc2cc(N3CCN(C)CC3)nc(Sc3ccc(NC(=O)C4CC4)cc3)n2)n[nH]1 [Tozasertib] (partner 0.1 µM)
Outline: (§1)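 Medians of duplicate plates are given as relative viability. That measure is the nuclei count in treated wells divided by the count in vehicle wells. Counts were taken on 4× images of lung cancer cell lines in 1536-well plates, 5 days after pin-tool dosing the day after seeding with one drug alone or a fixed anchor-drug dose plus five library-drug doses (not always all listed) in √10 steps.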

GW-2580 + Linsitinib = compound: COC1=CC=C(C=C1)COC2=C(C=C(C=C2)CC3=CN=C(N=C3N)N)OC [GW-2580] + C[C@]1(O)C[C@@H](c2nc(-c3ccc4ccc(-c5ccccc5)nc4c3)c3c(N)nccn32)C1 [Linsitinib] (partner 1 µM)
Outline: as §1

GW-2580 + OSI-027 = compound: COC1=CC=C(C=C1)COC2=C(C=C(C=C2)CC3=CN=C(N=C3N)N)OC [GW-2580] + COc1cccc2cc(-c3nc([C@H]4CC[C@H](C(=O)O)CC4)n4ncnc(N)c34)[nH]c12 [OSI-027] (partner 0.5 µM)
Outline: as §1

GW-2580 + Phenformin = compound: COC1=CC=C(C=C1)COC2=C(C=C(C=C2)CC3=CN=C(N=C3N)N)OC [GW-2580] + N=C(N)NC(=N)NCCc1ccccc1 [Phenformin] (partner 250 µM)
Outline: as §1

Fedratinib + Pemetrexed = compound: Cc1cnc(Nc2ccc(OCCN3CCCC3)cc2)nc1Nc1cccc(S(=O)(=O)NC(C)(C)C)c1 [Fedratinib] + Nc1nc2[nH]cc(CCc3ccc(C(=O)N[C@@H](CCC(=O)O)C(=O)O)cc3)c2c(=O)[nH]1 [Pemetrexed] (partner 0.2 µM)
Outline: as §1

Cell Line	relative viability (GW-2580 + Tozasertib; first compound 0.08 µM)	relative viability (GW-2580 + Tozasertib; first compound 0.8 µM)	relative viability (GW-2580 + Tozasertib; first compound 2.53 µM)	relative viability (GW-2580 + Tozasertib; first compound 8 µM)	relative viability (GW-2580 + Linsitinib; first compound 0.08 µM)	relative viability (GW-2580 + Linsitinib; first compound 0.8 µM)	relative viability (GW-2580 + Linsitinib; first compound 2.53 µM)	relative viability (GW-2580 + Linsitinib; first compound 8 µM)	relative viability (GW-2580 + OSI-027; first compound 0.08 µM)	relative viability (GW-2580 + OSI-027; first compound 0.8 µM)	relative viability (GW-2580 + OSI-027; first compound 2.53 µM)	relative viability (GW-2580 + OSI-027; first compound 8 µM)	relative viability (GW-2580 + Phenformin; first compound 0.08 µM)	relative viability (GW-2580 + Phenformin; first compound 0.8 µM)	relative viability (GW-2580 + Phenformin; first compound 2.53 µM)	relative viability (GW-2580 + Phenformin; first compound 8 µM)	relative viability (Fedratinib + Pemetrexed; first compound 0.1 µM)	relative viability (Fedratinib + Pemetrexed; first compound 0.3162 µM)	relative viability (Fedratinib + Pemetrexed; first compound 1 µM)
NCI-H596	0.956	1.02	0.891	0.919	1.22	1.08	1.07	1	0.823	0.733	0.76	0.808	0.92	0.657	0.811	0.804	0.511	0.511	0.426
NCI-H322M	0.491	0.553	0.476	0.593	1.01	0.958	0.857	1.05	0.528	0.562	0.634	0.538	0.787	0.819	0.866	0.782	0.61	0.651	0.538
NCI-H2228	0.28	0.351	0.226	0.235	0.88	0.664	0.79	0.633	0.569	0.6	0.639	0.545	0.395	0.371	0.358	0.318	0.331	0.284	0.294
NCI-H647	0.358	0.218	0.418	0.189	1.39	1.39	1.09	1.33	0.68	0.612	0.646	0.745	0.605	0.623	0.401	0.661	0.172	0.146	0.134
SK-MES-1	1.06	1.06	0.88	0.816	1.12	1.14	1.01	1.09	0.625	0.723	0.592	0.379	0.748	0.608	0.515	0.528	1.01	0.947	0.811
NCI-H2085	0.698	0.8	0.667	0.748	0.818	1.13	0.978	0.879	0.985	0.86	0.653	0.886	0.756	0.739	0.682	0.769	0.88	1.06	0.805
SW 1573	0.183	0.2	0.219	0.24	0.744	0.806	0.713	0.66	0.809	0.626	0.666	0.577	0.334	0.383	0.401	0.4	0.753	0.857	0.673
NCI-H441	0.698	0.704	0.584	0.655	0.425	0.763	0.351	0.625	0.653	0.634	0.586	0.77	0.997	0.852	0.773	1.05	0.267	0.242	0.232
LOU-NH91	0.687	0.657	0.625	0.589	0.956	0.972	0.877	1.02	0.706	0.808	0.678	0.721	0.692	0.757	0.611	0.66	0.43	0.351	0.399
NCI-H3122	0.549	0.421	0.468	0.362	0.993	1.13	1.16	1.05	1.28	1.24	1.19	0.895	0.41	0.366	0.339	0.341	0.186	0.189	0.197
NCI-H460	0.349	0.394	0.422	0.33	1.04	1.17	0.604	0.795	0.996	0.864	0.679	0.656	0.713	0.576	0.494	0.528	0.0603	0.0665	0.0598
NCI-H650	0.721	0.743	0.669	0.589	0.94	1.02	0.547	1.17	0.55	0.585	0.465	0.518	0.43	0.474	0.392	0.481	0.866	0.887	0.835
NCI-H661	0.34	0.344	0.367	0.336	0.493	0.615	0.419	0.439	0.739	0.754	0.644	0.543	0.269	0.282	0.282	0.271	0.939	0.928	0.883
NCI-H1793	0.379	0.3	0.281	0.307	0.93	0.934	0.814	0.824	0.365	0.323	0.306	0.254	0.4	0.259	0.314	0.286	0.81	0.847	0.724
NCI-H1734	0.25	0.267	0.277	0.252	0.899	0.839	0.895	0.911	0.617	0.65	0.582	0.537	0.35	0.374	0.38	0.359	0.442	0.435	0.356
LXF-289	0.191	0.188	0.161	0.157	1.02	0.992	0.997	0.858	0.999	0.859	0.857	0.731	0.514	0.521	0.489	0.506	0.89	0.872	0.884
H3255	0.619	0.217	0.664	0.47	0.98	1.03	1.08	0.796	0.577	0.606	0.622	0.595	0.277	0.848	0.702	0.359	0.531	0.559	0.563
201T	0.998	0.935	0.96	0.82	1.06	1.14	1.14	1.06	0.647	0.994	1.09	0.797	0.466	0.418	0.461	0.433	0.332	0.336	0.314
NCI-H2126	0.889	0.933	0.822	0.794	0.739	0.731	0.653	0.743	0.697	0.793	0.706	0.716	0.52	0.535	0.543	0.526	0.592	0.657	0.626
HOP-62	0.404	0.374	0.333	0.326	1.05	0.953	0.877	0.982	0.905	0.801	0.847	0.985	0.758	0.744	0.637	0.655	0.26	0.244	0.322
CAL-12T	0.422	0.365	0.349	0.297	0.985	0.815	0.917	0.762	0.609	0.853	0.526	0.699	0.624	0.613	0.609	0.514	1.02	1.2	1.31
NCI-H520	0.421	0.459	0.443	0.46	1.03	1.18	1.16	0.985	0.276	0.316	0.241	0.272	0.79	0.59	0.592	0.587	0.804	0.59	0.436
NCI-H1755	0.545	0.576	0.523	0.538	1.05	1.17	0.955	0.761	0.757	0.676	0.686	0.703	0.667	0.631	0.326	0.594	0.506	0.416	0.449
NCI-H2023	0.475	0.431	0.522	0.342	0.643	0.864	0.654	0.67	0.512	0.459	0.39	0.393	0.466	0.423	0.336	0.382	0.272	0.254	0.158
NCI-H2009	0.744	0.828	0.715	0.707	1.14	1.21	1.18	1.06	0.665	0.707	0.619	0.633	0.509	0.45	0.409	0.423	0.985	0.97	1.01
